The target of series [1] is RGS2-Galpha-q interaction (Homo sapiens (Human), UniProt P41220). The experiment in a line: NanoBit RGS/Gα cell-based protein-protein interaction assay, RGS2. The note with it: for Selectivity: RGS4 IC50/RGS2 IC50; for IC50: inhibition of RGS2-Galpha-q interaction, read-out: RGS2 IC50 μM (95% Cl). The protocol: (§1) The NanoBit cell-based assay was performed as previously described. The NanoBit substrate (NanoGlo Live Cell Reagent) was prepared as a 5× stock, per the manufacture's protocol, and added to the wells at 10 μL per well. Post substrate addition, a baseline signal was established for 30 minutes using a BioTek Synergy 2 plate reader in luminescent mode. Post baseline read 10 μL of vehicle (Hank's Balanced Salt solution+20 mM HEPES) or AlF4 (stock solution: 40 mM NaF, 500 μM AlCl3) was added and luminescence was measured for an additional 30 minutes. Lastly, 4× compound or vehicle (DMSO) was added to the appropriate wells, and the plate was read for an additional hour. Data presented represents the mean of N=3 independent experiments±S.E.M. All data analysis was completed in GraphPad Prism 7 and 8.
Chain of RGS2-Galpha-q interaction (P41220 whole entry): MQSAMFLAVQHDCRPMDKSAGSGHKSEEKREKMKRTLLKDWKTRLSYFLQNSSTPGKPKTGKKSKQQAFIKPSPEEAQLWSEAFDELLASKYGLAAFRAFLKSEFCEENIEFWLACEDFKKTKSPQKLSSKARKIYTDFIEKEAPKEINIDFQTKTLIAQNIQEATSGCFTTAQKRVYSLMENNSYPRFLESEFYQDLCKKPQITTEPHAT
(§2) All selected compounds were purchased and tested for their ability to inhibit RGS2-Galpha-q interaction in NanoBit assays. The same assay was also used to test the compounds' ability to inhibit RGS4-Galpha-q interaction as a measure of selectivity. RGS4 was not part of the docking calculations performed here because no structure is available for the human RGS4. It was used in the assays, nonetheless, to test for the validity of our docking approach to selectivity and binding.

For series [2], the target named is RGS4-Galpha-q interaction (Homo sapiens (Human), UniProt P49798). The experiment in a line: NanoBit RGS/Gα cell-based protein-protein interaction assay, RGS4. The note with it: for IC50: inhibition of RGS4-Galpha-q interaction, read-out: RGS4 IC50 μM (95% Cl). Here is the method: as §1, §2
Chain of RGS4-Galpha-q interaction (P49798 whole entry): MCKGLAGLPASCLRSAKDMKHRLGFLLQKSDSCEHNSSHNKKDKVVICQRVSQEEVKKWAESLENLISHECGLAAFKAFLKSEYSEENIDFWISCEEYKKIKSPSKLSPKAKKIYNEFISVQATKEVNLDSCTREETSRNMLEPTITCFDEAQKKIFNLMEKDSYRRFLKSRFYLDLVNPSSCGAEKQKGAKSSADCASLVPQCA
The next series relates to NCI 60 cell panel. Description: NCI 60 Cell One-Dose Screen. The class given is cell-based, human. The note with it: single high dose 10^−5 M; leukemia, NSCLC, colon, CNS, melanoma, ovarian, renal, prostate, breast. The protocol:
Another study was conducted to measure the cytotoxic effect of the RGS2 inhibitor. The growth reduction feature of direct RGS2 inhibitors was examined within the National Cancer Institute single high dose panel established that the drug was cytotoxic across a variety of cancers. Spanning across 60 standard cancer cell lines, this cytotoxicity assessment measured anti-proliferative activity within the following cancer types, with numerous subtypes below them: leukemia, non-small cell lung cancer, colon cancer, central nervous system cancer, melanoma, ovarian cancer, renal cancer, prostate cancer, and breast cancer.
The NCI 60 Cell One-Dose Screen is a standardized test carried out by National Cancer Institute, where a compound is tested at an initial single high dose (10^−5 M) across the full NCI 60 cell panel. Once a compound is assessed to be effective against a standard threshold number of cell lines, the compound is progresses to a full five-dose screen to determine anti-proliferative capability. This assay is ran relative to parallel studies with a no-drug control and at time zero number of cells.

Series [3] concerns LNCaP prostate cancer cell line. The experiment in a line: Wound healing (scratch) migration assay. The series is classed as cell-based, human. The note with it: 1 μM, more potently at 2 μM and higher. The protocol:
It has previously been shown that RGS2 gene expression in the human prostate cancer cells LnCap were downgraded by infection with small hairpin RNA (shRNA) targeting the RGS2 gene (henceforth “shRGS2”). These shRGS2 LnCap cells expressed lower levels of RGS2 protein compared to the non-infected control, leading to a reduction in RGS2 activity.
Metastatic evaluation was carried out by a wound healing assay. A wound healing assay measures cell migration of individual cells, cell sheets, and clusters from one location to another. A single mechanical laceration was made on a 12-well plate growing a cancer cells monolayer that was grown overnight, and the cells were allowed to regrow across the inclusion over the span of 48 hours. Results were recorded between the knockdown shRGS2 and control in values of the closure % as the wound healing took place at 24 hour and 48 hour time points (FIG. 3). Results for the RGS2 inhibitor treated cells were recorded as pictures taken at 5 separate time points every 24 hours (FIG. 4A-H).

Structures are written as SMILES.

In the case of `Nc1nc2c(nc(NCCCN3CCOCC3)n2[C@H]2O[C@@H](CO)[C@H](O)[C@@H]2O)c(=O)[nH]1` [AJ-1], in series [1], the Selectivity is 289. Moreover, the figures for the IC50 in series [1] and in series [2] were 0.04 µM and 10.1 µM, respectively. In addition, the “cytotoxic effect across cancer types” value in the series with NCI 60 cell panel is “cytotoxic effect against all aforementioned cancers except prostate, ovarian, and colon cancer”.
For the compound `COc1ccc(Cn2nnnc2[C@H](c2cc3cc(C)ccc3[nH]c2=O)N2CCN(C3CCCCC3)CC2)cc1` [AJ-2], in series [1], the Selectivity turned out to be 13 and the IC50 was found to be 1.45 µM. Also, in series [2], the IC50 is 18.8 µM.
For `Cc1onc(C(=O)NNC(=O)Nc2ccc(Cl)cc2)c1C(=O)N1CCN(C(c2ccccc2)c2ccccc2)CC1` [AJ-3], in series [1], the Selectivity worked out at 4.25 and the IC50 came to 4.94 µM. In series [3], the “migration of LNCaP cells” value was “inhibited the migration ability”. Besides, the IC50 in series [2] amounted to 21 µM. Also, in the series with NCI 60 cell panel, the “cytotoxic effect across cancer types” value is recorded as “strong cytotoxic effect against the full list of cancers”.
On to `Cc1ccc([C@@H](C(=O)NC2CCCCC2)N(Cc2ccccc2Cl)C(=O)c2ccc(CN3CCOCC3)o2)o1` [AJ-4], for which, in series [1], the Selectivity is 1.81 and the IC50 worked out at 13.8 µM. The IC50 in series [2] worked out at 25 µM. The “cytotoxic effect across cancer types” value in the series with NCI 60 cell panel is recorded as “strong cytotoxic effect against the full list of cancers”.
Regarding `Cc1cc(C)c2[nH]c(=O)c([C@@H](c3nnnn3Cc3ccc4c(c3)OCO4)N3CCN(C)CC3)cc2c1` [AJ-5], in series [1], the Selectivity was 1.53. Further, the IC50 in series [1] stood at 15 µM; in series [2], 23 µM.
On the same counts, the results for `Cc1cccc2cc([C@H](c3nnnn3Cc3ccc4c(c3)OCO4)N3CCN(C)CC3)c(=O)[nH]c12` [AJ-6] are 0.48, 19.8 µM and around 9.6 µM.
For `Cn1c(=O)c2c(nc(NCc3ccccc3)n2C[C@H](O)CN2CCN(Cc3ccccc3)CC2)n(C)c1=O` [AJ-7], in series [1], the Selectivity is reported as 0.51 and the IC50 came out at 27.6 µM. In series [2], the IC50 was determined as 14.1 µM.
For the compound `CCc1ccc2[nH]c(=O)c(C(c3nnnn3Cc3ccc(F)cc3)N3CCN(C4CCCCC4)CC3)cc2c1` (stereo not drawn) [AJ-8], in series [1], the Selectivity stood at 0.29 and the IC50 came out at 33.1 µM. Also, the IC50 in series [2] was found to be 9.6 µM. The “cytotoxic effect across cancer types” value in the series with NCI 60 cell panel is “strong cytotoxic effect against the full list of cancers”.
On the same counts, the results for `Cc1cc(C)c2[nH]c(=O)c(C(c3nnnn3Cc3ccc(F)cc3)N3CCN(C4CCCCC4)CC3)cc2c1` (stereo not drawn) [AJ-9] are 2.72, 33.5 µM, 91 µM and “strong cytotoxic effect against the full list of cancers”.
Take `COCc1ccc2[nH]c(=O)c(C(c3nnnn3C[C@H]3CCCO3)N3CCN(Cc4ccccc4)CC3)cc2c1` (stereo partly drawn) [AJ-10]: the concentration for half-maximal inhibition (IC50) in series [1] was 78 µM. Also, the “activity towards RGS4” value in series [2] (result in words) is reported as “no apparent activity towards RGS4”. The “cytotoxic effect across cancer types” value in the series with NCI 60 cell panel is listed as “strong cytotoxic effect against the full list of cancers”.

Broadly, the IC50 is the concentration at which inhibition is half-maximal.

(Values after patent US20240173316A1, “Methods and Compositions for Treating Cancer” (Ohio Northern University, priority 2022, published 2024).)
